Test system: a strain of at least one of the organisms listed (panel of Gram-positive organisms and Gram-negative strains)
Assay: organism not typed
Assay type: cell-based
Conditions: read-out: MIC (minimum inhibitory concentration)

## O=c1ccc2ccc(F)c3c2n1CC3CN1CCC(NC[C@H]2COc3ccnnc3O2)CC1 (mixture of isomers) [Example 62, (1R/S)-1-[(4-{[(7S)-6,7-dihydro[1,4]dioxino[2,3-c]pyridazin-7-ylmethyl]amino}-1-piperidinyl)methyl]-9-fluoro-1,2-dihydro-4H-pyrrolo[3,2,1-ij]quinolin-4-one]
  MIC: ≤ 4 µg/mL

From patent US20080221110A1 (priority 2005, published 2008)
